Laboratory results from patent publication US20150329558A1, “FUSED HETEROCYCLIC COMPOUNDS AS ION CHANNEL MODULATORS” (Gilead Sciences, Inc., priority 2011, published 2015).
Where two headings read alike, the source gives them in different places.

Assays:
[1] = biological target: wild-type human cardiac sodium channel, hNav1.5 (late INa) (Homo sapiens, UniProt Q14524); assay: Late INa screening assay (QPatch whole cell patch clamp); type: cell-based
Outline: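 HEK293 cells stably expressing hNav1.5 alpha subunit without beta subunits, QPatch automated whole-cell clamp at 23-25° C, CsF-based internal solution pH 7.4. Late INa induced by 10 μM tefluthrin; 250 ms steps to −20 mV from −120 mV at 0.1 Hz, compounds at 1 μM. Percent block of mean current 225–250 ms into the step.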

[2] = biological target: wild-type human cardiac sodium channel, hNav1.5 (peak INa) (Homo sapiens, UniProt Q14524); assay: Peak INa screening assay (tonic and use-dependent block); type: cell-based
wild-type human cardiac sodium channel, hNav1.5 (peak INa), sequence (Q14524 whole entry): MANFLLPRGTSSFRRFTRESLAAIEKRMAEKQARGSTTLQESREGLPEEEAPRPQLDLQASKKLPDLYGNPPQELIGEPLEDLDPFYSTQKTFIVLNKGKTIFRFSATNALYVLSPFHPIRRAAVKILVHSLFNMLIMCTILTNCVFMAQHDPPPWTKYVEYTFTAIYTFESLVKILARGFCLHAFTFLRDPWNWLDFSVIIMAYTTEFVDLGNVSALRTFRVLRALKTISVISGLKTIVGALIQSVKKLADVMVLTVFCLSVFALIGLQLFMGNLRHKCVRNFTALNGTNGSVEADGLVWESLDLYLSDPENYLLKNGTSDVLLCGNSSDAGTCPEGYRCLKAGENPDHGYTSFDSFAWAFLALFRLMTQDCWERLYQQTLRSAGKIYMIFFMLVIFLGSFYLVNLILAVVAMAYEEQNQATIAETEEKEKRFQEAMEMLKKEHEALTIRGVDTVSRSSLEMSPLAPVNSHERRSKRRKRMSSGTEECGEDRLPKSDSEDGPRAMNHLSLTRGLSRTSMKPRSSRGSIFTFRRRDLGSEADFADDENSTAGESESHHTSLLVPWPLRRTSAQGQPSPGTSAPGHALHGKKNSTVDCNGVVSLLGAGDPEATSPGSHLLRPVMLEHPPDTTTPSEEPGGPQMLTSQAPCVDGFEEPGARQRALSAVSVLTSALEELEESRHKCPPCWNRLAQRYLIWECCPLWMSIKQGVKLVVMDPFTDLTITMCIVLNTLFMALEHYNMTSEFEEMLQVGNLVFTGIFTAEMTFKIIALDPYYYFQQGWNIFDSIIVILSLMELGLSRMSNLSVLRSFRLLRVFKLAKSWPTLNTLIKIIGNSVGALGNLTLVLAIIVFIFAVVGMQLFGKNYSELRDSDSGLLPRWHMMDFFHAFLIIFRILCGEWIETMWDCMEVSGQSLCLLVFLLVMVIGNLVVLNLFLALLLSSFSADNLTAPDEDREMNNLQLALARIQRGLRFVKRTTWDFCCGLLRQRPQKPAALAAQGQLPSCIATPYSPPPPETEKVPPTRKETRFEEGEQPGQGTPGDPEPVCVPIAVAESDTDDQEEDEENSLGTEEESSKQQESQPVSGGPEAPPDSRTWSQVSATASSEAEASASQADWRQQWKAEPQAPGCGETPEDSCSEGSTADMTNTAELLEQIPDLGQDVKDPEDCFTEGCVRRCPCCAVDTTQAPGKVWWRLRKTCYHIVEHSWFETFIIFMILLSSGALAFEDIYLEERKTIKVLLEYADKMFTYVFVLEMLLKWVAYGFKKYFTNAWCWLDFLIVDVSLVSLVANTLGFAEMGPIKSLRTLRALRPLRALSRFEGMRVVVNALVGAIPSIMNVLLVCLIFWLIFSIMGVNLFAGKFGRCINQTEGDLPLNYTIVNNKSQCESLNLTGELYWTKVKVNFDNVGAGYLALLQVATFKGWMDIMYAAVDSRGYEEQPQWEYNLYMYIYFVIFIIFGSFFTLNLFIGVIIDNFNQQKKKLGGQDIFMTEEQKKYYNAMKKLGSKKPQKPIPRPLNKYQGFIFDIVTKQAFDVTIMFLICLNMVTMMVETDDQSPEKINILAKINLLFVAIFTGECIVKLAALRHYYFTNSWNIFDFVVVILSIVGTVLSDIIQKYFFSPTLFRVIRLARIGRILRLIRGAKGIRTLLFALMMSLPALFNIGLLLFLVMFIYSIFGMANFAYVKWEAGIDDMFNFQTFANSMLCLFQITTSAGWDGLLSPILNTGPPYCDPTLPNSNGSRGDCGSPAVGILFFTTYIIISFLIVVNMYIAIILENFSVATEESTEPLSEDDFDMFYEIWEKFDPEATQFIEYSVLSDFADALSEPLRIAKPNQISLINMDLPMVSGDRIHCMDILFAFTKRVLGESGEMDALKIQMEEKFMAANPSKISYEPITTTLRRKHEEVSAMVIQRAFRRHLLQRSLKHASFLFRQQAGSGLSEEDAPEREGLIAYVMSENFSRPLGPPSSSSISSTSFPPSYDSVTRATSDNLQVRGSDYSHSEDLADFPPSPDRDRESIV
Description: The late sodium current (Late INa) and peak sodium current (Peak INa) assays are performed on an automated electrophysiology platform, QPatch 16× (Sophion Bioscience, Copenhagen, Denmark), which uses the whole cell patch clamp technique to measure currents through the cell membrane of up to 16 cells at a time. The assay uses an HEK293 (human embryonic kidney) cell line heterologously expressing the wild-type human cardiac sodium channel, hNav1.5, purchased from Millipore (Billerica, Mass.). No beta subunits were coexpressed with the Na channel alpha subunit. Cells are maintained with standard tissue culture procedures and stable channel expression is maintained with 400 μg/mL Geneticin in the culture medium. […] Experiments are carried out at 23-25° C. For both the Late INa and Peak INa assays, series resistance compensation is set to 100% and series resistance and whole-cell compensation are performed automatically. Currents are digitized at 25 kHz and low-pass filtered at 12 kHz and 10 kHz for the late and peak INa assays, respectively. Currents through open sodium channels are automatically recorded and stored in the Sophion Bioscience Oracle database (Sophion Bioscience, Copehagen, Denmark). Analysis is performed using QPatch Assay and database software and data are compiled in Excel. Compound stocks are routinely made by the Gilead Sample Bank in plastic vials to 10 mM in dimethyl sulfoxide (DMSO). In some cases, when compounds are not soluble in DMSO, they are made in 100% ethanol. Stocks are sonicated as necessary. […] The intracellular solution used to perfuse the inside of the cells for both the Late INa and Peak INa assays contains: 120 mM CsF, 20 mM CsCl, 5 mM EGTA, 5 mM HEPES and pH adjusted to 7.4 with CsOH. Compounds are diluted in extracellular solution to 1 μM in glass vials and then transferred to glass well plates before robotic addition to the cells. […] Compounds were also evaluated for their effect in several other assays, including their effect on Peak INa. Good separation between the concentrations of test compound to reduce late and peak INa is beneficial to enable separation of the desired effect to reduce late INa-induced electrical and mechanical dysfunction from the undesired effect to reduce peak INa, which can lead to slowing or block of conduction of electrical excitation in the heart. It is contemplated that the compounds of Formula I avoid significant block of peak INa. Since the peak INa in the cells used herein can be very large, introducing artifacts in the recording, the concentration of Na^+ in the bath can be reduced to 20 mM and a nonpermeant cation added to compensate for the Na^+ that was removed to maintain the osmolarity and ionic strength of the solution (see solution details below). Analysis of peak INa generally requires correction for rundown before determining the % block of peak current by the tested compound. […] A low stimulation frequency of 0.1 Hz was used to determine the effect of the test compound when the channel spent most of the time in the resting (closed) state and provides information about Tonic Block (TB). A higher stimulation frequency (3 Hz) was used to measure block of the channel when it spent more time in the activated and inactivated states and provided a measure of Use-Dependent Block (UDB). Use-dependent block refers to the accumulation of block with increased frequency of channel activation. Block of cardiac peak INa by compounds of this invention is increased with an increase in the frequency of stimulation from 0.1 to 1-5 Hz (frequencies encountered either in the normal heart or during tachycardia). It is therefore expected that reduction of peak INa by compounds of this invention will be greater at high heart rates, such as those during tachyarrhythmias, than at normal heart rates. […]

[3] = Microsomal stability assay, rat; type: in vitro ADME; details: metabolic stability, rat liver microsomes 0.5 mg/mL, substrate 3 uM
Outline: (§1)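 Liver microsomes at 0.5 mg/mL protein in 100 mM KPO4 buffer, incubated with 3 uM compound and NADPH-regenerating system, run in duplicate. Samples taken at 2, 12, 25, 45 and 65 min and quenched in MeOH/ACN/water before analysis.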

[4] = Microsomal stability assay, dog; type: in vitro ADME; details: metabolic stability, dog liver microsomes 0.5 mg/mL, substrate 3 uM
Outline: as §1

[5] = Microsomal stability assay, human; type: in vitro ADME; details: metabolic stability, human liver microsomes 0.5 mg/mL, substrate 3 uM
Outline: as §1

[6] = percent block of late INa, compound at 1 μM, 10 μM Tefluthrin, HEK293 hNav1.5, read-out: Late INa 1 μM
[7] = tonic block of peak INa, 0.1 Hz, 1 μM, read-out: Peak TB 1 μM
[8] = use-dependent block of peak INa, 3 Hz, 1 μM, read-out: Peak UDB 1 μM
[9] = % inhibition at 1 μM, read-out: NAv1.5*-LATE-
[10] = % inhibition at 1 μM, tonic block, read-out: NAv1.5*-PEAK-TB-
[11] = % inhibition at 1 μM, use-dependent block 3 Hz, read-out: NAv1.5*-PEAK-UDB-3 HZ-

wild-type human cardiac sodium channel, hNav1.5 (late INa), sequence (Q14524 whole entry): as above

| MS Rat THalf [3] | MS Dog THalf [4] | MS Human THalf [5] | SMILES | inhibition at 1 µM [1, 6] | inhibition at 1 µM [2, 7] | inhibition at 1 µM [2, 8] | inhibition at 1 µM [1, 9] | inhibition at 1 µM [2, 10] | inhibition at 1 µM [2, 11] |
| --- | --- | --- | --- | --- | --- | --- | --- | --- | --- |
| 31 min | 36 min | 34 min | O=c1c2cc(-c3ccc(OC(F)(F)F)cc3)ccc2nnn1CC1(CN2CCCC2)CC1 [II-63, 3-((1-(pyrrolidin-1-ylmethyl)cyclopropyl)methyl)-6-(4-(trifluoromethoxy)phenyl)benzo[d][1,2,3]triazin-4(3H)-one] | 46% | 23% | 50% |  |  |  |
| 48 min | 138 min | 33 min | O=C(Cc1ccccn1)N1CCc2ccc(-c3ccc(C(F)(F)F)cc3)cc2C1 [IX-29, 2-(pyridin-2-yl)-1-(7-(4-(trifluoromethyl)phenyl)-3,4-dihydroisoquinolin-2(1H)-yl)ethanone] | 45% | 10% | 12% | 45% | 10% | 12% |
| 348 min | 332 min | 145 min | O=C(c1ncccn1)N1CCc2ccc(-c3ccc(OC(F)(F)F)cc3)cc2C1 [IX-11, pyrimidin-2-yl(7-(4-(trifluoromethoxy)phenyl)-3,4-dihydroisoquinolin-2(1H)-yl)methanone] | 44% | 17% | 22% | 44% | 17% | 22% |
| 58 min | 107 min | 74 min | O=C1c2cc(-c3ccc(OC(F)(F)F)cc3)ccc2SCN1Cc1ccccn1 [Compound X-1, 3-(pyridin-2-ylmethyl)-6-(4-(trifluoromethoxy)phenyl)-2H-benzo[e][1,3]thiazin-4(3H)-one] | 47% | 14% | 22% |  |  |  |
| 45 min | 137 min | 36 min | O=C1c2cc(-c3ccc(C(F)(F)F)cc3)ccc2SCN1Cc1ccccn1 [Compound X-3, 3-(pyridin-2-ylmethyl)-6-(4-(trifluoromethyl)phenyl)-2H-benzo[e][1,3]thiazin-4(3H)-one] | 67% | 31% | 35% |  |  |  |
| 132 min | 245 min | 159 min | O=C(c1ncc[nH]1)N1CCc2ccc(-c3ccc(C(F)(F)F)cc3)cc2C1 [IX-57, (1H-imidazol-2-yl)(7-(4-(trifluoromethyl)phenyl)-3,4-dihydroisoquinolin-2(1H)-yl)methanone] | 44% | 10% | 6% | 44% | 10% | 6% |
| 26 min | 18 min | 19 min | O=c1c2cc(-c3ccc(OC(F)(F)F)cc3)ccc2cnn1CCOc1nccc(C2CC2)n1 [III-29, 2-(2-(4-cyclopropylpyrimidin-2-yloxy)ethyl)-7-(4-(trifluoromethoxy)phenyl)phthalazin-1 (2H)-one] | 58% | 10% | 9% |  |  |  |
| 57 min | 55 min | 48 min | O=C1c2cc(-c3ccc(C(F)(F)F)cc3)ccc2SCN1Cc1ccccc1Cl [Compound X-5, 3-(2-chlorobenzyl)-6-(4-(trifluoromethyl)phenyl)-2H-benzo[e][1,3]thiazin-4(3H)-one] | 57% | 12% | 35% |  |  |  |
| 24 min | 63 min | 206 min | Cc1coc(Cn2nnc3ccc(-c4ccc(OC(F)(F)F)cc4)cc3c2=O)n1 [II-97, 3-((4-methyloxazol-2-yl)methyl)-6-(4-(trifluoromethoxy)phenyl)benzo[d][1,2,3]triazin-4(3H)-one] | 54% | 12% | 7% |  |  |  |
| 30 min | 14 min | 44 min | O=c1c2cc(-c3ccc(OC(F)(F)F)cc3)ccc2cnn1CCOc1cnccn1 [III-39, 2-(2-(pyrazin-2-yloxy)ethyl)-7-(4-(trifluoromethoxy)phenyl)phthalazin-1 (2H)-one] | 47% | 7% | 0% |  |  |  |
| 42 min | 209 min | 254 min | O=c1c2cc(-c3ccc(OC(F)(F)F)cc3)ccc2cnn1Cc1nccc(C2CC2)n1 [III-23, 2-((4-cyclopropylpyrimidin-2-yl)methyl)-7-(4-(trifluoromethoxy)phenyl)phthalazin-1 (2H)-one] | 51% | 6% | 12% |  |  |  |
| 137 min | 164 min | 142 min | O=C1c2cc(-c3ccc(OC(F)(F)F)cc3)ccc2SCN1Cc1ncccn1 [Compound X-2, 3-(pyrimidin-2-ylmethyl)-6-(4-(trifluoromethoxy)phenyl)-2H-benzo[e][1,3]thiazin-4(3H)-one] | 55% | 14% | 17% |  |  |  |
| 122 min | 126 min | 103 min | O=C1c2cc(-c3ccc(C(F)(F)F)cc3)ccc2SCN1Cc1ncccn1 [Compound X-4, 3-(pyrimidin-2-ylmethyl)-6-(4-(trifluoromethyl)phenyl)-2H-benzo[e][1,3]thiazin-4(3H)-one] | 52% | 27% | 25% |  |  |  |
| 96 min | 37 min | 157 min | O=c1c2cc(-c3ccc(OC(F)(F)F)cc3)ccc2cnn1CCOc1ncc(Cl)cn1 [III-37, 2-(2-(5-chloropyrimidin-2-yloxy)ethyl)-7-(4-(trifluoromethoxy)phenyl)phthalazin-1 (2H)-one] | 50% | 7% | 4% |  |  |  |
| 298 min | 117 min | 363 min | Cc1cc(Cn2nnc3ccc(-c4ccc(OC(F)(F)F)cc4)cc3c2=O)on1 [II-25, 3-((3-methylisoxazol-5-yl)methyl)-6-(4-(trifluoromethoxy)phenyl)benzo[d][1,2,3]triazin-4(3H)-one] | 50% | 9% | 2% |  |  |  |
